Measurements taken from publication PMC12102759 (Protein Science : A Publication of the Protein Society, 2025).
Where two headings read alike, the source gives them in different places.

Tested on: PABPC1 PABC
Format: binding, human
Details: DMS-BM library, bait PABPC1 PABC, row aa = residue at this position; for DMS-derived PSSM value, position L4 / DMS-derived PSSM value (averaged), position L2: L = wild type; for DMS-derived PSSM value, position T3 / DMS-derived PSSM value (averaged), position T1: T = wild type; for DMS-derived PSSM value, position K9 / DMS-derived PSSM value (averaged), position K7: K = wild type; for DMS-derived PSSM value (averaged), position R12 / DMS-derived PSSM value, position R12: R = wild type; for DMS-derived PSSM value, position E10: E = wild type
[1] = prey ATXN2, peptide KSTLNPNAKEFNPRSF
[2] = prey ATXN2, peptide KSTLNPNAKEFNPRSF, N = wild type
[3] = prey ATXN2, TLNPNAKEFNPRSF(averaged) over the two overlapping peptides, P = wild type
[4] = prey ATXN2, TLNPNAKEFNPRSF(averaged) over the two overlapping peptides, N = wild type
[5] = prey ATXN2, TLNPNAKEFNPRSF(averaged) over the two overlapping peptides
[6] = prey ATXN2, peptide KSTLNPNAKEFNPRSF, P = wild type
[7] = prey ATXN2, peptide TLNPNAKEFNPRSFSQ, N = wild type
[8] = prey ATXN2, TLNPNAKEFNPRSF(averaged) over the two overlapping peptides, S = wild type
[9] = prey ATXN2, peptide TLNPNAKEFNPRSFSQ, P = wild type
[10] = prey ATXN2, TLNPNAKEFNPRSF(averaged) over the two overlapping peptides, F = wild type
[11] = prey ATXN2, peptide TLNPNAKEFNPRSFSQ, F = wild type
[12] = prey ATXN2, peptide KSTLNPNAKEFNPRSF, S = wild type
[13] = prey ATXN2, peptide KSTLNPNAKEFNPRSF, F = wild type
[14] = prey ATXN2, peptide TLNPNAKEFNPRSFSQ, S = wild type
[15] = prey ATXN2, peptide TLNPNAKEFNPRSFSQ

KSTLNPNAKEFNPRSF L4N (KSTNNPNAKEFNPRSF)
DMS-derived PSSM value, position L4 [1]: 0

KSTLNPNAKEFNPRSF N7W (KSTLNPWAKEFNPRSF)
DMS-derived PSSM value, position N7 [2]: 0

KSTLNPNAKEFNPRSF T3G (KSGLNPNAKEFNPRSF)
DMS-derived PSSM value, position T3 [1]: 0.0785

KSTLNPNAKEFNPRSF T3A (KSALNPNAKEFNPRSF)
DMS-derived PSSM value, position T3 [1]: 0.04081

KSTLNPNAKEFNPRSF L4R (KSTRNPNAKEFNPRSF)
DMS-derived PSSM value, position L4 [1]: 0

KSTLNPNAKEFNPRSF K9G (KSTLNPNAGEFNPRSF)
DMS-derived PSSM value, position K9 [1]: 0.006369

TLNPNAKEFNPRSF(averaged) P4I (TLNINAKEFNPRSF)
DMS-derived PSSM value (averaged), position P4 [3]: 0.2825

KSTLNPNAKEFNPRSF K9P (KSTLNPNAPEFNPRSF)
DMS-derived PSSM value, position K9 [1]: 0.004179

TLNPNAKEFNPRSF(averaged) N3P (TLPPNAKEFNPRSF)
DMS-derived PSSM value (averaged), position N3 [4]: 0

TLNPNAKEFNPRSF(averaged) L2N (TNNPNAKEFNPRSF)
DMS-derived PSSM value (averaged), position L2 [5]: 0

KSTLNPNAKEFNPRSF P13D (KSTLNPNAKEFNDRSF)
DMS-derived PSSM value, position P13 [6]: 0.0004732

TLNPNAKEFNPRSFSQ N5A (TLNPAAKEFNPRSFSQ)
DMS-derived PSSM value, position N5 [7]: 0.004479

TLNPNAKEFNPRSF(averaged) S13I (TLNPNAKEFNPRIF)
DMS-derived PSSM value (averaged), position S13 [8]: 0.01901

TLNPNAKEFNPRSF(averaged) N3K (TLKPNAKEFNPRSF)
DMS-derived PSSM value (averaged), position N3 [4]: 0

TLNPNAKEFNPRSFSQ P11I (TLNPNAKEFNIRSFSQ)
DMS-derived PSSM value, position P11 [9]: 0.0006115

TLNPNAKEFNPRSF(averaged) F14R (TLNPNAKEFNPRSR)
DMS-derived PSSM value (averaged), position F14 [10]: 0.0001414

KSTLNPNAKEFNPRSF N12M (KSTLNPNAKEFMPRSF)
DMS-derived PSSM value, position N12 [2]: 0.08333

TLNPNAKEFNPRSF(averaged) T1N (NLNPNAKEFNPRSF)
DMS-derived PSSM value (averaged), position T1 [5]: 0.01868

TLNPNAKEFNPRSFSQ F9T (TLNPNAKETNPRSFSQ)
DMS-derived PSSM value, position F9 [11]: 0.05894

KSTLNPNAKEFNPRSF S15I (KSTLNPNAKEFNPRIF)
DMS-derived PSSM value, position S15 [12]: 0.03802

KSTLNPNAKEFNPRSF P13V (KSTLNPNAKEFNVRSF)
DMS-derived PSSM value, position P13 [6]: 0.767

TLNPNAKEFNPRSF(averaged) L2E (TENPNAKEFNPRSF)
DMS-derived PSSM value (averaged), position L2 [5]: 0.04453

TLNPNAKEFNPRSF(averaged) R12W (TLNPNAKEFNPWSF)
DMS-derived PSSM value (averaged), position R12 [5]: 0.09752

TLNPNAKEFNPRSFSQ N10P (TLNPNAKEFPPRSFSQ)
DMS-derived PSSM value, position N10 [7]: 0.06147

KSTLNPNAKEFNPRSF F11E (KSTLNPNAKEENPRSF)
DMS-derived PSSM value, position F11 [13]: 0

KSTLNPNAKEFNPRSF T3Q (KSQLNPNAKEFNPRSF)
DMS-derived PSSM value, position T3 [1]: 0

TLNPNAKEFNPRSFSQ A6E (TLNPNEKEFNPRSFSQ)
DMS-derived PSSM value, position A6 (prey ATXN2, peptide TLNPNAKEFNPRSFSQ, A = wild type): 0

TLNPNAKEFNPRSF(averaged) N3L (TLLPNAKEFNPRSF)
DMS-derived PSSM value (averaged), position N3 [4]: 0

KSTLNPNAKEFNPRSF F16W (KSTLNPNAKEFNPRSW)
DMS-derived PSSM value, position F16 [13]: 0.01686

TLNPNAKEFNPRSFSQ N3P (TLPPNAKEFNPRSFSQ)
DMS-derived PSSM value, position N3 [7]: 0

KSTLNPNAKEFNPRSF L4Y (KSTYNPNAKEFNPRSF)
DMS-derived PSSM value, position L4 [1]: 0

TLNPNAKEFNPRSFSQ S15V (TLNPNAKEFNPRSFVQ)
DMS-derived PSSM value, position S15 [14]: 0.009732

TLNPNAKEFNPRSFSQ F9S (TLNPNAKESNPRSFSQ)
DMS-derived PSSM value, position F9 [11]: 0

TLNPNAKEFNPRSF(averaged) N3F (TLFPNAKEFNPRSF)
DMS-derived PSSM value (averaged), position N3 [4]: 0

KSTLNPNAKEFNPRSF N5Q (KSTLQPNAKEFNPRSF)
DMS-derived PSSM value, position N5 [2]: 0

KSTLNPNAKEFNPRSF N12D (KSTLNPNAKEFDPRSF)
DMS-derived PSSM value, position N12 [2]: 0.009433

KSTLNPNAKEFNPRSF N5I (KSTLIPNAKEFNPRSF)
DMS-derived PSSM value, position N5 [2]: 0

TLNPNAKEFNPRSFSQ R12I (TLNPNAKEFNPISFSQ)
DMS-derived PSSM value, position R12 [15]: 0.04014

TLNPNAKEFNPRSF(averaged) K7S (TLNPNASEFNPRSF)
DMS-derived PSSM value (averaged), position K7 [5]: 0.03571

TLNPNAKEFNPRSF(averaged) F14K (TLNPNAKEFNPRSK)
DMS-derived PSSM value (averaged), position F14 [10]: 0.01179

TLNPNAKEFNPRSFSQ N3D (TLDPNAKEFNPRSFSQ)
DMS-derived PSSM value, position N3 [7]: 0.1652

KSTLNPNAKEFNPRSF E10L (KSTLNPNAKLFNPRSF)
DMS-derived PSSM value, position E10 [1]: 0

TLNPNAKEFNPRSFSQ N3L (TLLPNAKEFNPRSFSQ)
DMS-derived PSSM value, position N3 [7]: 0

TLNPNAKEFNPRSFSQ S15Y (TLNPNAKEFNPRSFYQ)
DMS-derived PSSM value, position S15 [14]: 0.004758

TLNPNAKEFNPRSFSQ R12P (TLNPNAKEFNPPSFSQ)
DMS-derived PSSM value, position R12 [15]: 0.005288

TLNPNAKEFNPRSF(averaged) T1V (VLNPNAKEFNPRSF)
DMS-derived PSSM value (averaged), position T1 [5]: 0.1224

KSTLNPNAKEFNPRSF S2I (KITLNPNAKEFNPRSF)
DMS-derived PSSM value, position S2 [12]: 0.01393

TLNPNAKEFNPRSF(averaged) K7R (TLNPNAREFNPRSF)
DMS-derived PSSM value (averaged), position K7 [5]: 0.01712

TLNPNAKEFNPRSF(averaged) A6Y (TLNPNYKEFNPRSF)
DMS-derived PSSM value (averaged), position A6 (prey ATXN2, TLNPNAKEFNPRSF(averaged) over the two overlapping peptides, A = wild type): 0

KSTLNPNAKEFNPRSF N7S (KSTLNPSAKEFNPRSF)
DMS-derived PSSM value, position N7 [2]: 0.04398

TLNPNAKEFNPRSF(averaged) R12Y (TLNPNAKEFNPYSF)
DMS-derived PSSM value (averaged), position R12 [5]: 0.04827

TLNPNAKEFNPRSF(averaged) K7W (TLNPNAWEFNPRSF)
DMS-derived PSSM value (averaged), position K7 [5]: 0.01767

KSTLNPNAKEFNPRSF N7F (KSTLNPFAKEFNPRSF)
DMS-derived PSSM value, position N7 [2]: 0.07049

TLNPNAKEFNPRSFSQ N5K (TLNPKAKEFNPRSFSQ)
DMS-derived PSSM value, position N5 [7]: 0.01257

KSTLNPNAKEFNPRSF P13R (KSTLNPNAKEFNRRSF)
DMS-derived PSSM value, position P13 [6]: 0

KSTLNPNAKEFNPRSF S15A (KSTLNPNAKEFNPRAF)
DMS-derived PSSM value, position S15 [12]: 0.02636

KSTLNPNAKEFNPRSF E10T (KSTLNPNAKTFNPRSF)
DMS-derived PSSM value, position E10 [1]: 0.1693

KSTLNPNAKEFNPRSF S2N (KNTLNPNAKEFNPRSF)
DMS-derived PSSM value, position S2 [12]: 0

TLNPNAKEFNPRSFSQ N5F (TLNPFAKEFNPRSFSQ)
DMS-derived PSSM value, position N5 [7]: 0.006389

KSTLNPNAKEFNPRSF K9R (KSTLNPNAREFNPRSF)
DMS-derived PSSM value, position K9 [1]: 0.0319

TLNPNAKEFNPRSF(averaged) R12V (TLNPNAKEFNPVSF)
DMS-derived PSSM value (averaged), position R12 [5]: 0.08681

KSTLNPNAKEFNPRSF P6S (KSTLNSNAKEFNPRSF)
DMS-derived PSSM value, position P6 [6]: 0.01358

TLNPNAKEFNPRSFSQ R12D (TLNPNAKEFNPDSFSQ)
DMS-derived PSSM value, position R12 [15]: 0.05154

TLNPNAKEFNPRSFSQ P4V (TLNVNAKEFNPRSFSQ)
DMS-derived PSSM value, position P4 [9]: 0.4281

TLNPNAKEFNPRSFSQ S13Y (TLNPNAKEFNPRYFSQ)
DMS-derived PSSM value, position S13 [14]: 0.04643

TLNPNAKEFNPRSF(averaged) S13V (TLNPNAKEFNPRVF)
DMS-derived PSSM value (averaged), position S13 [8]: 0.05819

KSTLNPNAKEFNPRSF E10G (KSTLNPNAKGFNPRSF)
DMS-derived PSSM value, position E10 [1]: 0

KSTLNPNAKEFNPRSF L4V (KSTVNPNAKEFNPRSF)
DMS-derived PSSM value, position L4 [1]: 0.01089

TLNPNAKEFNPRSF(averaged) P11F (TLNPNAKEFNFRSF)
DMS-derived PSSM value (averaged), position P11 [3]: 0.06425

TLNPNAKEFNPRSFSQ N5I (TLNPIAKEFNPRSFSQ)
DMS-derived PSSM value, position N5 [7]: 0.01004

KSTLNPNAKEFNPRSF S15Y (KSTLNPNAKEFNPRYF)
DMS-derived PSSM value, position S15 [12]: 0.02596

TLNPNAKEFNPRSF(averaged) N10A (TLNPNAKEFAPRSF)
DMS-derived PSSM value (averaged), position N10 [4]: 0.08276
